Reference: patent US8334135B2, “Stem cells from adipose tissue, and differentiated cells from said cells” (Yves Saint Laurent Parfums, priority 2002, dated 2012)
“Also recorded” adds a separate entry of the source.

Key:
Primo 2CA cells = experiment: Glycerophosphate dehydrogenase (GPDH) activity during adipocyte differentiation of Primo 2CA cells; assay type: cell-based; details: Primo 2CA cells T24 in the presence of human bFGF
Method: (§1) The confluent cells are incubated in a DMEM/Ham's F12 (vol/vol, 1:1) medium supplemented with 100 U/ml of penicillin, 100 μg/ml of streptomycin, 5 μg/ml of human insulin (Sigma), 10 μg/ml of human transferrin (Sigma), 1 μM of PPAR activator (for example BRL49653), 100 to 250 μM of isobutyl-methylxanthine (IBMX) and 1 μM of dexamethasone. 48 to 72 hours later, this medium is replaced by the medium described above but containing no IBMX and dexamethasone. This differentiation medium is replaced every 2-3 days for a period of 15 to 20 days corresponding to an optimum adipocyte differentiation. Firstly, the cells which are to have the GPDH activity measure, are lysed. […] The reading is made with a spectrophotometer, allowing kinetic measurements to be carried out (KONTRON Uvicon 860 thermostatted at 37° C.).

Primo 2CS cells = experiment: Glycerophosphate dehydrogenase (GPDH) activity during adipocyte differentiation of Primo 2CS cells; assay type: cell-based; details: Primo 2CS cells T22 in the presence of human bFGF; after 13 days of differentiation (3 experiments); control 22
Method: as §1

[1] = tested on: adipocytes obtained from Primo 2CA T32 cells; experiment: Lipolysis test (glycerol liberated by adipocytes in the presence of adrenergic receptor agonists); assay type: cell-based, human; details: adipocytes from Primo 2CA T32 cells (about 140 population doublings); control 5.76
Method: Lipolyses were carried out on adipocytes obtained from Primo 2CA T32 cells (about 140 population doublings), with agonists specific for different β-adrenergic receptors.
This test consists of measuring the radiolabelled glycerol liberated by adipocytes in the presence of adrenergic receptor agonists. The method used is that described by Bradley D C and Kaslow H R (Anal Biochem, 1989, 180, 11-16). The glycerol liberated is phosphorylated in the presence of glycerokinase and ATP and ATP labeled with ^32P in the […]. The residual ATP is then hydrolyzed in an acid medium at 90° C. and precipitated with ammonium molybdate and triethylamine. The radioactivity incorporated in the form of glycerophosphate labelled with ^32P is estimated by counting in a β counter and the values are expressed in pmol using a calibration curve.
Lipolyses were carried out on Primo 2CA T32 cells with specific agonists for the different β adrenergic receptors, namely: • Isoproterenol: β1, β2 adrenergic • Dobutamine: β1 adrenergic • Terbutaline: β2 adrenergic • CL316243 β3 adrenergic: […]

[2] = tested on: stem cells of the invention; experiment: Effect of Leukemia Inhibitory Factor on morphology and proliferation of the stem cells; assay type: cell-based, human; details: LIF 10 ng/ml
Method: For this enrichment step, different culture media were tested.

CA population = experiment: Effect of bFGF on proliferation of the quiescent CA population; assay type: cell-based, human
Method: The addition of growth factors such as bFGF incorporated, for example, at a concentration of about 3 to 20 ng/ml of medium, in particular 5 to 10 ng/ml, not only halves the population doubling time (for example the population doubling time without bFGF is about 72 hours, while it is about 36 hours with bFGF), but also allows the population to reach confluence. Without growth factors, proliferation of a quiescent population of stem cells of the invention can be provoked by trypsination and dilution, but proliferation will spontaneously stop at about 70% confluence. Since confluence is indispensable in vitro for initiating the differentiation of many cell types, the use of growth factors such as bFGF must be envisaged for in vitro production of this type of differentiated cell.
These observations confirm the quiescent state of the CA population and the state of senescence in the CS population.
After establishing a population of quiescent CA cells, human bFGF (basic Fibroblast Growth Factor) is added to the culture medium described above in a concentration of 5 ng/ml of medium.

CS population = experiment: Effect of bFGF on proliferation of the CS population at late stages; assay type: cell-based, human; details: bFGF 5 ng/ml, after 50 population doublings

For `CN(CCOc1ccc(CC2SC(=O)NC2=O)cc1)c1ccccn1` (stereo not shown) [BRL49653], the GPDH activity (Primo 2CA cells; after 11 days of differentiation (2 experiments), control 77) was 290 nmol/min/mg of protein, the GPDH activity (Primo 2CA cells; after 16 days of differentiation (3 experiments), control 20) was 390 nmol/min/mg of protein and the GPDH activity (Primo 2CS cells) was 30 nmol/min/mg of protein.
With `C[C@H](Cc1ccc2c(c1)OC(C(=O)[O-])(C(=O)[O-])O2)NC[C@H](O)c1cccc(Cl)c1.[Na+].[Na+]` [CL316243] the lipolysis rate [1] was 17.1 nmol/h/mg of protein.
For `CC(CCc1ccc(O)cc1)NCCc1ccc(O)c(O)c1` (stereo not shown) [Dobutamine], the lipolysis rate [1] was 60.1 nmol/h/mg of protein.
For `CC(C)(C)NCC(O)c1cc(O)cc(O)c1` (stereo not shown) [Terbutaline], the lipolysis rate [1] was 93.78 nmol/h/mg of protein.
In the case of LIF: Leukemia Inhibitory Factor, the “effect on morphology or proliferation of the cells” value [2] is reported as “no change in the morphology or proliferation; also recorded: no changes in morphology or proliferation”.
With “bFGF: human basic Fibroblast Growth Factor” the “effect on proliferation of CA population” value (CA population; bFGF 5 ng/ml, late stages, after 50 population doublings) was “effectively respond”, the population doubling time (CA population; with bFGF (about 3 to 20 ng/ml), about 72 hours without bFGF) was “about 36 hours” and the “effect on proliferation of CS population” value (CS population) was “no significant effect; also recorded: practically no effect”.
